Results taken from paper PMC11679793, “Structure-Activity Relationship Study of Majusculamide D: Overcoming Metabolic Instability and Severe Toxicity with a Fluoro Analogue” (Marine Drugs, 2024).

Key:
[1] = Stability in mouse plasma assay; assay type: in vitro ADME; details: 1 μM, 37 °C, 2 h incubation
Method: Thaw plasma at room temperature and vortex for 3–5 s. Centrifuge at 3000 rpm at 10 °C for 10 min, and carefully transfer the supernatant to a new Eppendorf tube. Preincubate the plasma at 37 °C for 10 min. Prepare a series of test substances by adding 3 μL of the compound (100 μM) to 297 μL of plasma to achieve a final concentration of 1 μM, ensuring that the DMSO concentration in plasma is 1%. Propantheline bromide is used as a positive control. Incubate the mixture at 37 °C, and at specified time points (0, 1, 2, 4, and 24 h), take 50 μL of the plasma sample. To terminate the reaction, add 250 μL of acetonitrile (containing an internal standard), vortex thoroughly, and centrifuge at 16,000 rcf (4 °C) for 10 min. Collect 130 μL of the supernatant and dilute with 70 μL of pure water for LC-MS/MS analysis. The concentration of the test substances in plasma samples was determined using LC-MS/MS. The stability of the test substance in plasma was evaluated by measuring the remaining percentage of the compound in the plasma over time.

[2] = Serum biochemical analysis and H&E histology of liver and kidney; assay type: in vivo, mice; details: 5 mg/kg every other day, 14 days
Method: In the biochemical and histological assays, 1n (5 mg/kg) and 1a (5 mg/kg) were administered to mice every other day, with the control group receiving an equivalent dose of saline. Following 14 days, mouse serum was collected for biochemical analysis, and organs were fixed for histological examination. […] In comparison, the liver tissues of the 1n-treated and control groups were normal.
Mice were euthanized, and liver and kidney tissues were collected and fixed in 10% neutral-buffered formalin for 48 h. The fixed tissues were processed for paraffin embedding, including dehydration in a graded ethanol series, clearing with xylene, and infiltration with molten paraffin wax. Paraffin blocks were sectioned into 4 μm slices using a rotary microtome, and the sections were mounted onto glass slides. The slides were dried at 60 °C for 4 h to ensure proper tissue adhesion. Following deparaffinization and rehydration, staining was performed according to the manufacturer’s instructions for the H&E staining kit (Solarbio, China). The sections were immersed in a hematoxylin solution for 3 min to stain the nuclei and then rinsed under running tap water for 1 minute to remove excess stain. Differentiation was achieved by briefly immersing the slides in a 1% hydrochloric acid-ethanol solution, followed by neutralization in 0.6% ammonia water until the nuclei appeared blue. Eosin staining was applied for 30 s to stain cytoplasmic and extracellular components, imparting a pink coloration. The slides were rinsed under running tap water for 30 s to remove excess eosin. Finally, the sections were dehydrated through a graded ethanol series, cleared with xylene, and coverslipped with a neutral resin mounting medium to preserve the stained tissues for microscopic examination.

[3] = system: pancreatic cancer cells; experiment: Clone formation assay; assay type: cell-based; details: 48 h treatment then 10 days culture, concentration-dependent, vs control
From the text: dependent manner (Figure S1C). […]
growth and survival of pancreatic cancer cells. […]
Snail and TCF8/ZEB1 both […]
are transcription factors that can inhibit the expression of E-cadherin and promote the EMT process. Vimentin is a marker protein of mesenchymal cells, and its expression increases during EMT, further contribute to the process of metastasis by supporting the structural changes needed for cell migration and invasion.
We examined the effects of compound 1a on above key proteins involved in tumor progression pathways employing Western blot analysis in PANC-1 cells and MIA PaCa-2 […]
1a might inhibit cancer cell invasion and migration by enhancing cell-cell adhesion and barrier function. Conversely, the expression levels of β-catenin, Fibronectin, Snail, […]
Cells were resuspended at a concentration of 300 cells/mL, and 2 mL of the suspension was added to each well of a 6-well plate. After the cells adhered to the plate, the compound was added, and the cells were incubated for 48 hours, followed by replacement with fresh medium. The cells were then cultured for an additional 10 days. Subsequently, the cells were fixed with methanol and stained with crystal violet. The colonies were imaged under a microscope and quantified using ImageJ.
The BeyoClick™ EdU-488 Cell Proliferatio n Assay Kit (Beyotime Biotechnology, China) was used according to the manufacturer's instructions. […]

SMILES: CCCCC(C)CC(C)C(=O)N(C)C(Cc1ccc(OC)cc1)C(=O)NC(C(=O)N(C)C(C(=O)N1CC(O)CC1C(=O)N1C(=O)C=CC1C)C(C)C)C(C)OC(C)=O (centres unmarked) [Compound 1a, Majusculamide D]
- remaining percentage in mouse plasma after 2 h [1]: 54.7%
- kidney tissue H&E histology [2]: no significant pathological differences
- liver tissue H&E histology [2]: signs of hepatocyte necrosis and disruption of the hepatic cord structure
- serum ALT and AST levels compared to the control group ([2]; n = 3): substantially elevated
- colony formation [3]: remarkably reduced colony formation
